Assay results taken from a compilation of properties of binary mixtures (doi:10.1039/c5cp04050g).

Assay: xn = mol fraction of the nth substance listed
Details: 100 kPa

CCCC[n+]1ccn(C)c1.[Cl-] + NCCO
viscosity [mPa·s]
Details	293 K	298 K	303 K	303.1 K	313.1 K	323.1 K	333.1 K	333.2 K	343.2 K
x2 = 0	–	19	–	15.2	9.93	6.88	–	5.03	3.69
x2 = 0.5	–	134	–	–	–	36.7	–	–	17.9
x2 = 0.677	–	47.4	–	–	–	16.6	–	12	9.1
x2 = 0.8	36.2	28.1	22.4	–	14.9	10.5	7.41	–	5.58
